Assay results reported in patent publication US20140106967A1, “AUXIN PLANT GROWTH REGULATORS” (The Governors of The University of Alberta, priority 2011, published 2014).

What was measured:
tomato fruit = conditions: cited from earlier work
[1] = system: AtGA20ox and AtGA3ox genes; conditions: non-pollinated fruits; cited from earlier work
pea 'Carneval' = experiment: Growth chamber experiment 1, pea 'Carneval' sprayed with 4-Cl-IAA (Table P2); assay type: in vivo, Pisum sativum L.; conditions: for Seed yield per plant: sprayed near or at anthesis
Protocol: For growth chamber experiment, seeds of ‘Carneval’ were planted at an approximate depth of 2.5 cm in 3-L plastic pots (4 seeds per pot and thinned to 2 plants per pot after approximately 2 weeks) in 1:1 Sunshine #4 potting mix (Sun Gro Horticulture, Vancouver, Canada) and sand. The experiment was arranged in a completely randomized design and grown at the University of Alberta in a growth chamber set at 19° C./17° C. (day/night) with a 16/8-h photoperiod under cool-white fluorescent lights (54W/835/HO high fluorescent bulbs, Phillips, Holland; 350 μE m^2 s^−2). For the heat stress treatment, plants were placed in a separate growth chamber with a 16/8-h photoperiod under cool-white fluorescent lights (F54/15/835/HO high fluorescent bulbs, Phillips, Holland) for 4 days where the temperature was cycled over a 24 hr period as follows: 33° C. air temperature for 6 hours per day (between 11:00 and 17:00 hrs) for 4 days during the light cycle; the remainder of the light cycle was maintained at a 22° C. air temperature; the dark cycle was maintained at 19° C. After the 4 day heat treatment, the plants were returned to the same growth chamber they were originally grown in, where they were taken to maturity.
For experiment 1, aqueous 4-chloro-indole-3-acetic acid (4-Cl-IAA) solutions at 1×10^−7, 1×10^−6, or 1×10^−5M in 0.1% (v/v) Tween 80 or aqueous 0.1% (v/v) Tween 80 (control) were applied one time as a spray to the entire plant to cover when the first flowering node of the main stem was near or at anthesis.

canola cv. Peace = experiment: Greenhouse canola study, foliar auxin spray at green bud stage, with or without heat stress (Tables C1-C4); assay type: in vivo, Brassica napus
Protocol: Canola seeds (Brassica napus) from the cultivar Peace were planted at an approximate depth of 1 cm in 5 inch square plastic pots (6 inch pot depth; 4 seeds per pot) in 1:1 Sunshine #4 potting mix (Sun Gro Horticulture, Vancouver, Canada) and sand. The seedlings were thinned to one seedling per pot approximately 2 weeks after seeding. Plants were grown at the University of Alberta in a greenhouse from Nov. 14, 2011 to Mar. 5, 2012. The average temperature was approximately 18° C. day/16° C. night (Nov. 14, 2011 to Feb. 8, 2012) then 21° C. day/19° C. night from Feb. 8 to Mar. 5, 2012. The plants also received supplemental lighting daily (average photon flux density of 250 μE m^−2s^−2) for 16 hours per day (from 6 am to 10 pm).
The auxins, 4-methyl-indole-3-acetic acid (4-ME-IAA) or 4-chloro-indole-3-acetic acid (4-Cl-IAA) at 1×10^−7, 1×10^−6, 1×10^−5, or 1×10^−4M in aqueous 0.1% (v/v) Tween 80 or a control solution (aqueous 0.1% [v/v] Tween 80) were applied one time as a foliar spray to canola plants at the green bud stage (BBCH scale 51; prior to bolting when flower buds are visible from above, but they are tightly clustered and have not extended above smallest leaves surrounding the inflorescence). The experiment was arranged in a completely randomized design in the greenhouse.
The heat stress treatment was imposed by moving plants to receive the heat stress from the greenhouse into a growth chamber for 6 days. The light cycle began at 7:00 hours at a 19° C. air temperature. The heat treatment began at 11:00 hours (33° C. air temperature) and was maintained for 6 hours (until 17:00 hours). Following the heat treatment, the remainder of the light cycle was maintained at a 22° C. air temperature. The dark cycle (began at 23:00 hours) was maintained at 17° C. The photoperiod was 16 h light/8 h dark at an average photon flux density of 492 μE m^−2s^−2 using 54W/835/HO high fluorescent bulbs, Phillips, Holland. This heat treatment cycle was imposed for 6 days. The plants were returned to the greenhouse after the heat stress treatment to develop to maturity.

pea pericarp [2] = experiment: Split-pericarp assay: growth of deseeded pea pericarps attached to the plant; assay type: in vivo, Pisum sativum
Text: In addition to GAs, developing pea seeds and pericarps contain two auxins, 4-chloroindole-3-acetic acid (4-Cl-IAA) and indole-3-acetic acid (IAA) (Magnus et al. 1997). A split-pericarp assay where test compounds are applied to the inner wall of split and deseeded pericarps that are still attached to the plant has been developed to examine the effects of exogenously applied growth substances on pericarp growth.
(§1) During early pea fruit growth, the physiological roles of 4-chloroindole-3-acetic acid (4-Cl-IAA) and IAA, both natural pea auxins, in regulating gibberellin (GA) 20-oxidase gene expression (PsGA20ox1) were tested with 4-position, ring-substituted auxins that have a range of biological activities (fruit growth). The effect of seeds, and natural and synthetic auxins (4-Cl-IAA, and IAA; 4-Me-IAA, 4-Et-IAA and 4-F-IAA, respectively), and auxin concentration (4-Cl-IAA) on PsGA20ox1 mRNA levels in pea pericarp were investigated over a 24 h treatment period. The ability of certain 4-substituted auxins to increase PsGA20ox1 mRNA levels in deseeded pericarp was correlated with their ability to stimulate pericarp growth.

[3] = system: PsGA20ox1, PsGA3ox1, PsGA2ox1; experiment: GA biosynthesis/catabolism gene expression in pea pericarp; assay type: in vivo, Pisum sativum; conditions: 24 h treatment period
Protocol: as §1

pea pericarp [4] = conditions: cited from earlier work; for substitution for seeds in stimulating pericarp growth: deseeded pericarps, early pericarp growth (2 DAA); for substitution for the seeds in maintaining pea fruit growth in planta: in vivo
[5] = system: PsGA20ox1, PsGA3ox1, PsGA2ox1; conditions: in vivo; cited from earlier work
[6] = 1×10^−4 M, heat stress 33° C. 6 h/day, 6 days (Table C4)
[7] = 1×10^−4 M, non-heat stress (Table C3)
[8] = 1×10^−5 M, heat stress 33° C. 6 h/day, 6 days (Table C4)
[9] = 1×10^−5 M, non-heat stress (Table C3)
[10] = 1×10^−6 M, heat stress 33° C. 6 h/day, 6 days (Table C4)
[11] = 1×10^−6 M, non-heat stress (Table C3)
[12] = 1×10^−7 M, heat stress 33° C. 6 h/day, 6 days (Table C4)
[13] = 1×10^−7 M, non-heat stress (Table C3)

O=C(O)COc1ccc(Cl)cc1Cl [2,4-D]
parthenocarpic fruit growth (tomato fruit): induced parthenocarpic tomato fruit growth | expression of specific AtGA20ox and AtGA3ox genes [1]: up-regulated

O=C(O)Cc1c[nH]c2cccc(Cl)c12 [4-Cl-IAA, 4-chloroindole-3-acetic acid]
increase in seed yield vs control (pea 'Carneval'; 1×10^−5 M): 62% | Seed yield per plant (pea 'Carneval'; 1×10^−5 M): 18.28 ± 1.55 g | increase in seed yield vs control (pea 'Carneval'; 1×10^−6 M): 65% | Seed yield per plant (pea 'Carneval'; 1×10^−6 M): 18.61 ± 1.65 g | Seed yield per plant (pea 'Carneval'; 1×10^−7 M): 13.60 ± 1.33 g | leaf epinasty (canola cv. Peace; 1×10^−4 M, 24 hours after treatment, milder under heat stress): leaf epinasty was observed | % pod set (canola cv. Peace; [6]): 49 ± 4% | Seed yield (canola cv. Peace; [6]): 4.9 ± 0.8 g | Total number of flowers (canola cv. Peace; [6]): 312 ± 32 | Total number of pods with developing seeds (canola cv. Peace; [6]): 151 ± 17 | Total number of racemes (canola cv. Peace; [6]): 12 ± 1 | Total number undeveloped pods (canola cv. Peace; [6]): 45 ± 15 | % pod set (canola cv. Peace; [7]): 54 ± 4% | Seed yield (canola cv. Peace; [7]): 4.0 ± 0.3 g | Total number of flowers (canola cv. Peace; [7]): 201 ± 24 | Total number of pods with developing seeds (canola cv. Peace; [7]): 106 ± 8 | Total number of racemes (canola cv. Peace; [7]): 8 ± 1 | Total number undeveloped pods (canola cv. Peace; [7]): 17 ± 4 | reduction in number of racemes per plant vs control (canola cv. Peace; 1×10^−4 M, non-stress): 33% | reduction in seed yield vs control (canola cv. Peace; 1×10^−4 M, non-stress): 26% | reduction in total number of developing pods per plant vs control (canola cv. Peace; 1×10^−4 M, non-stress): 31% | % pod set (canola cv. Peace; [8]): 48 ± 2% | Seed yield (canola cv. Peace; [8]): 5.5 ± 1.0 g | Total number of flowers (canola cv. Peace; [8]): 414 ± 65 | Total number of pods with developing seeds (canola cv. Peace; [8]): 198 ± 33 | Total number of racemes (canola cv. Peace; [8]): 14 ± 2 | Total number undeveloped pods (canola cv. Peace; [8]): 34 ± 6 | increase in total number of pods with developing seeds per plant vs control (canola cv. Peace; 1×10^−5 M, non-heat stress): 27% | % pod set (canola cv. Peace; [9]): 57 ± 6% | Seed yield (canola cv. Peace; [9]): 5.8 ± 1.0 g | Total number of flowers (canola cv. Peace; [9]): 362 ± 53 | Total number of pods with developing seeds (canola cv. Peace; [9]): 195 ± 21 | Total number of racemes (canola cv. Peace; [9]): 14 ± 2 | Total number undeveloped pods (canola cv. Peace; [9]): 47 ± 19 | % pod set (canola cv. Peace; [10]): 53 ± 3% | Seed yield (canola cv. Peace; [10]): 6.8 ± 0.5 g | Total number of flowers (canola cv. Peace; [10]): 430 ± 39 | Total number of pods with developing seeds (canola cv. Peace; [10]): 229 ± 30 | Total number of racemes (canola cv. Peace; [10]): 15 ± 1 | Total number undeveloped pods (canola cv. Peace; [10]): 42 ± 5 | seed yield vs control (canola cv. Peace; 1×10^−6 M, mild heat stress): significant increase | % pod set (canola cv. Peace; [11]): 59 ± 4% | Total number of flowers (canola cv. Peace; [11]): 290 ± 26 | Total number of pods with developing seeds (canola cv. Peace; [11]): 174 ± 25 | Total number of racemes (canola cv. Peace; [11]): 12 ± 1 | Total number undeveloped pods (canola cv. Peace; [11]): 29 ± 4 | % pod set (canola cv. Peace; [12]): 46 ± 3% | Seed yield (canola cv. Peace; [12]): 6.0 ± 0.9 g | Total number of flowers (canola cv. Peace; [12]): 443 ± 70 | Total number of pods with developing seeds (canola cv. Peace; [12]): 197 ± 15 | Total number of racemes (canola cv. Peace; [12]): 13 ± 2 | Total number undeveloped pods (canola cv. Peace; [12]): 43 ± 14 | increase in percent pod set vs control (canola cv. Peace; 1×10^−7 M, non-heat stress): 21% | increase in total number of pods with developing seeds per plant vs control (canola cv. Peace; 1×10^−7 M, non-heat stress): 18% | % pod set (canola cv. Peace; [13]): 64 ± 4% | Seed yield (canola cv. Peace; [13]): 6.2 ± 0.6 g | Total number of flowers (canola cv. Peace; [13]): 287 ± 29 | Total number of pods with developing seeds (canola cv. Peace; [13]): 181 ± 14 | Total number of racemes (canola cv. Peace; [13]): 10 ± 1 | Total number undeveloped pods (canola cv. Peace; [13]): 26 ± 9 | pericarp growth (biological activity) (pea pericarp [2]): greatest increase | PsGA20ox1 mRNA levels in deseeded pericarp [3]: greatest increase | substitution for seeds in stimulating pericarp growth (pea pericarp [4]): can substitute for seeds in stimulating pericarp growth | substitution for the seeds in maintaining pea fruit growth in planta (pea pericarp [4]): can substitute for the seeds | gene expression of the GA catabolic gene PsGA2ox1 [5]: repress | pericarp GA biosynthesis gene expression, PsGA20ox1 and PsGA3ox1 [5]: stimulate

CCc1cccc2[nH]cc(CC(=O)O)c12 [4-Et-IAA]
pericarp growth (biological activity) (pea pericarp [2]): minimal or no increase | PsGA20ox1 mRNA levels in deseeded pericarp [3]: minimal or no increase

O=C(O)Cc1c[nH]c2cccc(F)c12 [4-F-IAA]
pericarp growth (biological activity) (pea pericarp [2]): minimal or no increase | PsGA20ox1 mRNA levels in deseeded pericarp [3]: minimal or no increase

O=C(O)Cc1c[nH]c2ccccc12 [IAA, indole-3-acetic acid, reference compound]
pericarp growth (biological activity) (pea pericarp [2]): not effective | PsGA20ox1 mRNA levels in deseeded pericarp [3]: not effective | substitution for seeds in stimulating pericarp growth (pea pericarp [4]): cannot | substitution for the seeds in maintaining pea fruit growth in planta (pea pericarp [4]): not
